In patent publication US20230172950A1 (priority 2020, published 2023):

Columns and labels:
Whole Blood = assay: Ex vivo whole blood incubation (Study 6), immune cell counts; type: cell-based; conditions: concentrations between 100 uM up to 500 uM
Description: (§1) The profound in vivo activity that we observe in naïve mice and in cancer models must be mediated through the mobilized supercharged Natural Killer T cells, T cells and dendritic cells after AVM0703 HED 6 mg/kg and higher.

Splenocytes = assay: Ex vivo splenocyte incubation (Study 24), viability by flow cytometry; type: cell-based; conditions: concentrations between 100 uM up to 500 uM
Description: as §1
Splenocytes were cultured for 16 hours prior to assay execution.

[1] = system: lymphocytes, monocytes, NKT cells, T cells, dendritic cells; conditions: in vivo, HED of 18 mg/kg and higher
[2] = in vivo; cited from earlier work

SMILES | response of ex vivo whole blood (Whole Blood) | response of isolated splenocytes (Splenocytes) | effects on colon, pancreas or bone [1] | biologic half-life [2]
C[C@@H]1C[C@H]2[C@@H]3CCC4=CC(=O)C=C[C@]4(C)[C@@]3(F)[C@@H](O)C[C@]2(C)[C@@]1(O)C(=O)CO [dexamethasone base, dexamethasone] | no response | no response | no effects | 
C[C@]12C=CC(=O)C=C1CC[C@@H]1[C@@H]2C(=O)C[C@@]2(C)[C@H]1CC[C@]2(O)C(=O)CO [prednisone] |  |  |  | about 20 hours
